Data taken from patent US9302999B2, “Substituted triazoles as herbicides” (E. I. DU PONT DE NEMOURS AND COMPANY, priority 2012, dated 2016).

Columns and labels:
Assay type in all cases: in vivo
Details in all cases: Preemergence, scale 0 to 100
[1] = system: goosegrass (Eleusine indica); assay: Test E pre-/postemergence: goosegrass
Procedure, shortened: (§1)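 Scores reflect greenhouse visual evaluation after 14–21 days, 0 meaning no effect and 100 complete control relative to untreated plants, for pre- and postemergence (1–4 leaf) applications.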

[2] = system: crabgrass, Brazil (Brazilian crabgrass, Digitaria horizontalis); assay: Test E pre-/postemergence: crabgrass, Brazil
Procedure, shortened: as §1

[3] = system: velvetleaf (Abutilon theophrasti); assay: Test E pre-/postemergence: velvetleaf
Procedure, shortened: as §1

[4] = system: smartweed (ladysthumb smartweed, Polygonum persicaria); assay: Test E pre-/postemergence: smartweed
From the text: (§2) Seeds of plant species selected from corn (Zea mays), soybean (Glycine max), velvetleaf (Abutilon theophrasti), lambsquarters (Chenopodium album), poinsettia, wild (wild poinsettia, Euphorbia heterophylla), pigweed, palmer (palmer pigweed, Amaranthus palmeri), waterhemp (common waterhemp, Amaranthus rudis), smartweed (ladysthumb smartweed, Polygonum persicaria), surinam grass (Brachiaria decumbens), crabgrass, large (large crabgrass, Digitaria sanguinalis), crabgrass, Brazil (Brazilian crabgrass, Digitaria horizontalis), panicum, fall (fall panicum, Panicum dichotomiflorum), foxtail, giant (giant foxtail, Setaria faberii), foxtail, green (green foxtail, Setaria viridis), goosegrass (Eleusine indica), johnsongrass (Sorghum halepense), ragweed (common ragweed, Ambrosia elation), barnyardgrass (Echinochloa crus-galli), sandbur (southern sandbur, Cenchrus echinatus), arrowleaf sida (Sida rhombifolia), ryegrass, Italian (Italian ryegrass, Lolium multiflorum), dayflower, (VA) (Virginia dayflower, Commelina virginica), field bindweed (Convolvulus arvensis), cocklebur (common cocklebur, Xanthium strumarium), morningglory (Ipomoea coccinea), nightshade (eastern black nightshade, Solanum ptycanthum), kochia (Kochia scoparia), nutsedge, yellow (yellow nutsedge, Cyperus esculentus) and beggarticks (hairy beggarticks, Bidens pilosa) were planted into a silt loam soil and treated preemergence with test chemicals formulated in a non-phytotoxic solvent mixture which included a surfactant. At the same time, plants selected from these crop and weed species were planted in pots containing a growing medium comprising spaghnum peat moss, vermiculite, wetting agent and starter nutrients and treated with postemergence applications of some of the test chemicals formulated in the same manner. Plants ranged in height from 2 to 18 cm for postemergence treatments (1- to 4-leaf stage).
(§3) Treated plants and controls were maintained in a greenhouse for 14 to 21 days, after which time all species were compared to controls and visually evaluated. Plant response ratings, summarized in Table E, are based on a scale of 0 to 100 where 0 is no effect and 100 is complete control. A dash (-) response means no test result.

[5] = system: panicum, fall (fall panicum, Panicum dichotomiflorum); assay: Test E pre-/postemergence: panicum, fall
From the text: as §2, §3

[6] = system: arrowleaf sida (Sida rhombifolia); assay: Test E pre-/postemergence: arrowleaf sida
Procedure, shortened: as §1

[7] = system: morningglory (Ipomoea coccinea); assay: Test E pre-/postemergence: morningglory
Procedure, shortened: as §1

[8] = system: poinsettia, wild (wild poinsettia, Euphorbia heterophylla); assay: Test E pre-/postemergence: poinsettia, wild
Procedure, shortened: as §1

[9] = system: foxtail, green (green foxtail, Setaria viridis); assay: Test E pre-/postemergence: foxtail, green
From the text: as §2, §3

[10] = system: ragweed (common ragweed, Ambrosia elation); assay: Test E pre-/postemergence: ragweed
From the text: as §2, §3

COc1nn(-c2ccc(C(F)(F)F)cc2)nc1Cc1ccnc(C(F)(F)F)c1 [Compound 15, 4-[[5-methoxy-2-[4-(trifluoromethyl)phenyl]-2H-1,2,3-triazol-4-yl]methyl]-2-(trifluoromethyl)pyridine]
Plant response rating: Goosegrass ([1]; 16 g ai/ha): 75
Plant response rating: Goosegrass ([1]; 31 g ai/ha): 100
Plant response rating: Goosegrass ([1]; 62 g ai/ha): 100
Plant response rating: Goosegrass ([1]; 125 g ai/ha): 100
Plant response rating: Goosegrass ([1]; 250 g ai/ha): 100
Plant response rating: Crabgrass, Brazil ([2]; 16 g ai/ha): 60
Plant response rating: Crabgrass, Brazil ([2]; 31 g ai/ha): 98
Plant response rating: Crabgrass, Brazil ([2]; 62 g ai/ha): 100
Plant response rating: Crabgrass, Brazil ([2]; 125 g ai/ha): 100
Plant response rating: Crabgrass, Brazil ([2]; 250 g ai/ha): 100
Plant response rating: Velvetleaf ([3]; 16 g ai/ha): 20
Plant response rating: Velvetleaf ([3]; 31 g ai/ha): 30
Plant response rating: Velvetleaf ([3]; 62 g ai/ha): 65
Plant response rating: Velvetleaf ([3]; 125 g ai/ha): 65
Plant response rating: Velvetleaf ([3]; 250 g ai/ha): 95
Plant response rating: Smartweed ([4]; 31 g ai/ha): 60
Plant response rating: Smartweed ([4]; 62 g ai/ha): 98
Plant response rating: Smartweed ([4]; 125 g ai/ha): 98
Plant response rating: Smartweed ([4]; 250 g ai/ha): 100
Plant response rating: Panicum, Fall ([5]; 16 g ai/ha): 98
Plant response rating: Panicum, Fall ([5]; 31 g ai/ha): 98
Plant response rating: Panicum, Fall ([5]; 62 g ai/ha): 100
Plant response rating: Panicum, Fall ([5]; 125 g ai/ha): 100
Plant response rating: Panicum, Fall ([5]; 250 g ai/ha): 100
Plant response rating: Arrowleaf Sida ([6]; 31 g ai/ha): 30
Plant response rating: Arrowleaf Sida ([6]; 62 g ai/ha): 40
Plant response rating: Arrowleaf Sida ([6]; 125 g ai/ha): 50
Plant response rating: Arrowleaf Sida ([6]; 250 g ai/ha): 60
Plant response rating: Morningglory ([7]; 16 g ai/ha): 10
Plant response rating: Morningglory ([7]; 31 g ai/ha): 50
Plant response rating: Morningglory ([7]; 62 g ai/ha): 50
Plant response rating: Morningglory ([7]; 125 g ai/ha): 65
Plant response rating: Morningglory ([7]; 250 g ai/ha): 65
Plant response rating: Poinsettia, Wild ([8]; 16 g ai/ha): 30
Plant response rating: Poinsettia, Wild ([8]; 31 g ai/ha): 30
Plant response rating: Poinsettia, Wild ([8]; 62 g ai/ha): 65
Plant response rating: Poinsettia, Wild ([8]; 125 g ai/ha): 75
Plant response rating: Poinsettia, Wild ([8]; 250 g ai/ha): 80
Plant response rating: Foxtail, Green ([9]; 16 g ai/ha): 20
Plant response rating: Foxtail, Green ([9]; 62 g ai/ha): 90
Plant response rating: Foxtail, Green ([9]; 125 g ai/ha): 100
Plant response rating: Foxtail, Green ([9]; 250 g ai/ha): 100
Plant response rating: Ragweed ([10]; 16 g ai/ha): 0
Plant response rating: Ragweed ([10]; 31 g ai/ha): 5
Plant response rating: Ragweed ([10]; 125 g ai/ha): 30
Plant response rating: Ragweed ([10]; 250 g ai/ha): 60
